Tested on: SiHa cells
Experiment: Cell proliferation assay (MTS), SiHa
Assay type: cell-based, human
Details: 1-20 μM, 24 hours
Method: The effect of Br-ORM on CaSki and SiHa cells proliferation was performed using the MTS assay. Briefly, cells were seeded at a density of 5×10^3 cells per well in 96 well plate and allowed to stand overnight at 37° C. and 5% CO2 incubator. Next day, cells were treated with different concentrations of Br-ORM (1, 5, 10 and 20 μM). DMSO was used as a vehicle for the treatment of control cells. Twenty four hours post-treatment, 20 μL of MTS reagent (5 mg/mL) was added in each well and further incubated the plate for 2 hours in a CO2 incubator. Absorbance was taken after 2 hours at […] (SpectraMax M2 spectrophotometer, Molecular Devices, Sunnyvale, CA, USA). The experiment was performed in triplicates. Results were represented as percent viability with respect to the control group. […]
FIG. 13. […] Cell viability was assessed by MTS assay. […] Bar graphs indicating quantification of colony formation in CaSki (i), and SiHa (ii) cells of cervical cancer with respect to vehicle control. […] Briefly, cervical cancer cells were treated with Br-ORM (10 μM) for 24 hours and the apoptosis inducing effect of Br-ORM was analyzed by Annexin V staining. […] The equal loading of protein in each lane was determined by probing the blots with β-actin antibody (FIG. 13F). […] Br-ORM arrests cell cycle in G1/S phase as determined by flow cytometry. […]

COc1ccc2c(c1)OC(C)(C)C(c1ccc(Br)cc1)C2c1ccc(OCCN2CCCC2)cc1 (centres unmarked) [ORM-Br]
cell viability / growth: inhibits the growth | cell viability / growth (listed as Br-ORM): dose dependently inhibited the cell viability

From patent publication US20240208950A1, “COMPOSITIONS AND METHODS FOR TREATMENT OF CERVICAL AND OVARIAN CANCER” (SOUTH DAKOTA BOARD OF REGENTS, priority 2021, published 2024)
